In test [1] the test system is HCV replicon in Huh7 cells. The experiment in a line: HCV replicon cell-based assay (FRET). The settings on record: HCV replicon, read-out: EC50 range. From the text:
An HCV replicon whole cell system was established as described by Lohmann V, Korner F, Koch J, Herian U, Theilmann L, Bartenschlager R., Science 285(5424):110-3 (1999). This system enabled us to evaluate the effects of our HCV Protease compounds on HCV RNA replication. Briefly, using the HCV strain 1B sequence described in the Lohmann paper (Assession number: AJ238799), an HCV cDNA was generated encoding the 5′ internal ribosome entry site (IRES), the neomycin resistance gene, the EMCV (encephalomyocarditis viurs)-IRES and the HCV nonstructural proteins, NS3-NS5B, and 3′ non-translated region (NTR). In vitro transcripts of the cDNA were transfected into the human hepatoma cell line, Huh7. […] Resulting cell lines were characterized for positive and negative strand RNA production and protein production over time.
Huh7 cells, constitutively expressing the HCV replicon, were grown in Dulbecco's Modified Eagle Media (DMEM) containing 10% Fetal calf serum (FCS) and 1 mg/ml G418 (Gibco-BRL). Cells were seeded the night before (1.5×10^4 cells/well) in 96-well tissue-culture sterile plates. Compound and no compound controls were prepared in DMEM containing 4% FCS, 1:100 Penicillin/Streptomysin, 1:100 L-glutamine and 5% DMSO in the dilution plate (0.5% DMSO final concentration in the assay). Compound/DMSO mixes were added to the cells and incubated for 4 days at 37° C. After 4 days, plates were rinsed thoroughly with Phosphate-Buffered Saline (PBS) (3 times 150 μl). The cells were lysed with 25 μl of a lysis assay reagent containing the FRET peptide (RET S1, as described for the in vitro enzyme assay). The lysis assay reagent was made from 5× cell Luciferase cell culture lysis reagent(Promega #E153A) diluted to 1× with distilled water, NaCl added to 150 mM final, the FRET peptide diluted to 10 μM final from a 2 mM stock in 100% DMSO. The plate was then placed into the Cytofluor 4000 instrument which had been set to 340 nm excitation/490 emission, automatic mode for 21 cycles and the plate read in a kinetic mode. EC50 determinations were carried out as described for the IC50 determinations.

Test [2] deals with T1, HCV NS3/4A protease complex (BMS strain, genotype 1a) (Hepatitis C virus genotype 1a, UniProt P27958, C1454S).
T1 construct: DNA encoding the recombinant HCV NS3/4A protease complex (amino acids 1027 to 1711) for these strains; inferred from the pET21b vector and Ni-NTA purification; made in house; host or cells: Escherichia coli BL21 (DE3), pET21b
T1 sequence (P27958 1658-1714, looked up, stated change not applied): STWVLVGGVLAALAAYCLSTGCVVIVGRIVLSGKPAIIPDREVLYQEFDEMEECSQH
T1 sequence (P27958 1027-1657, looked up, stated change not applied): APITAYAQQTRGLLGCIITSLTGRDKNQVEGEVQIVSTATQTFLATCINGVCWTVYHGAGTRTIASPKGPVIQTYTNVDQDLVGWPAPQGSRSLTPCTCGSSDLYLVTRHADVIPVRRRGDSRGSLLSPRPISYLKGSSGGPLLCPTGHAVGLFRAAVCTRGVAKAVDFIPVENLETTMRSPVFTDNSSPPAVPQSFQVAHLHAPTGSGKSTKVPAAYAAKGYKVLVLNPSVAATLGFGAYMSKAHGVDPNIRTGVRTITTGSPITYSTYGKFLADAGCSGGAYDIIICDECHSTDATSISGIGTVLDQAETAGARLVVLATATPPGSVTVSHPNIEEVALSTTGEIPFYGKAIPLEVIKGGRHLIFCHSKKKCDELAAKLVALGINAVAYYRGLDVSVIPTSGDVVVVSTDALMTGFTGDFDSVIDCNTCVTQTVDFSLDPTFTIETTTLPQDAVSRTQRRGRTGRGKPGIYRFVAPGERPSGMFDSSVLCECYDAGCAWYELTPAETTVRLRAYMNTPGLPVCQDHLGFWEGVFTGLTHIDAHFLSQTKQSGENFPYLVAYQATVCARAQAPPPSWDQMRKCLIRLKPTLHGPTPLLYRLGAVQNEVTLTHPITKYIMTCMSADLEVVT
The experiment in a line: Recombinant HCV NS3/4A protease complex FRET peptide assay, BMS strain. It counts as biochemical. The settings on record: NS3/4A BMS Strain. From the text:
The purpose of this in vitro assay was to measure the inhibition of HCV NS3 protease complexes, derived from the BMS, H77C or J416S strains, as described below, by compounds of the present invention.
Serum from an HCV-infected patient was obtained from Dr. T. Wright, San Francisco Hospital. An engineered full-length cDNA (compliment deoxyribonucleic acid) template of the HCV genome (BMS strain) was constructed from DNA fragments obtained by reverse transcription-PCR (RT-PCR) of serum RNA (ribonucleic acid) and using primers selected on the basis of homology between other genotype 1a strains. […] The infectious clones, H77C (1a genotype) and J4L6S (1b genotype) were obtained from R. Purcell (NIH) and the sequences are published in Genbank (AAB67036, see Yanagi,M., Purcell,R. H., Emerson,S. U. and Bukh,J. Proc. Natl. Acad. Sci. U.S.A. 94(16),8738-8743 (1997); AF054247, see Yanagi,M., St Claire,M., Shapiro,M., Emerson,S. U., Purcell,R. H. and Bukh,J, Virology 244 (1), 161-172. (1998)).
The BMS, H77C and J4L6S strains were used for production of recombinant NS3/4A protease complexes. DNA encoding the recombinant HCV NS3/4A protease complex (amino acids 1027 to 1711) for these strains were manipulated as described by P. Gallinari et al. (see Gallinari P, Paolini C, Brennan D, Nardi C, Steinkuhler C, De Francesco R. Biochemistry. 38(17):5620-32, (1999)). Briefly, a three-lysine solubilizing tail was added at the 3′-end of the NS4A coding region. The cysteine in the P1 position of the NS4A-NS4B cleavage site (amino acid 1711) was changed to a glycine to avoid the proteolytic cleavage of the lysine tag. Furthermore, a cysteine to serine mutation was introduced by PCR at amino acid position 1454 to prevent the autolytic cleavage in the NS3 helicase domain. The variant DNA fragment was cloned in the pET21b bacterial expression vector (Novagen) and the NS3/4A complex was expressed in Escherichia. coli strain BL21 (DE3) (Invitrogen) following the protocol described by P. Gallinari et al. (see Gallinari P, Brennan D, Nardi C, Brunetti M, Tomei L, Steinkuhler C, De Francesco R., J. Virol. 72(8):6758-69 (1998)) with modifications. Briefly, NS3/4A expression was induced with 0.5 mM Isopropyl β-D-1-thiogalactopyranoside (IPTG) for 22 hr at 20° C. […] The cells were resuspended in lysis buffer (10 mL/g) consisting of 25 mM N-(2-Hydroxyethyl)Piperazine-N′-(2-Ethane Sulfonic acid) (HEPES), pH 7.5, 20% glycerol, 500 mM Sodium Chloride (NaCl), 0.5% Triton-X100, 1 ug/ml lysozyme, 5 mM Magnesium Chloride (MgCl2), 1 ug/ml DnaseI, 5 mM β-Mercaptoethanol (βME), Protease inhibitor—Ethylenediamine Tetraacetic acid (EDTA) free (Roche), homogenized and incubated for 20 mins at 4° C. The homogenate was sonicated and clarified by ultra-centrifugation at 235000 g for 1 hr at 4° C. Imidazole was added to the supernatant to a final concentration of 15 mM and the pH adjusted to 8.0. The crude protein extract was loaded on a Nickel-Nitrilotriacetic acid (Ni-NTA) column pre-equilibrated with buffer B (25 mM HEPES, pH 8.0, 20% glycerol, 500 mM NaCl, 0.5% Triton-X100, 15 mM imidazole, 5 mM βME). The sample was loaded at a flow rate of 1 mL/min. The column was washed with 15 column volumes of buffer C (same as buffer B except with 0.2% Triton-X100). The protein was eluted with 5 column volumes of buffer D (same as buffer C except with 200 mM Imidazole).
NS3/4A protease complex-containing fractions were pooled and loaded on a desalting column Superdex-S200 pre-equilibrated with buffer D (25 mM HEPES, pH7.5, 20% glycerol, 300 mM NaCl, 0.2% Triton-X100, 10 mM βME).

From patent US6878722B2, “Substituted cycloalkyl P1′ hepatitis C virus inhibitors” (Bristol-Myers Squibb Company, priority 2002, dated 2005) come the findings set out here.

Like-named read-outs stand apart in the source and are kept apart here.

For `C=C[C@@H]1C[C@]1(NC(=O)[C@@H]1C[C@@H](Oc2cc(-c3ccccc3)nc3cc(OC)ccc23)CN1C(=O)[C@@H](NC(=O)OC(C)(C)C)C(C)(C)C)C(=O)NS(=O)(=O)C1(CCC)CC1` [Compound 29, (1-{4-(7-Methoxy-2-phenyl-quinolin-4-yloxy)-2-[1-(1-propyl-cyclopropanesulfonylaminocarbonyl)-2-vinyl-cyclopropylcarbamoyl]-pyrrolidine-1-carbonyl}-2,2-dimethyl-propyl)-carbamic acid tert-butyl ester], in test [1] (Hepatitis C virus, Huh-7), the EC50 (as a rule, the concentration at which the effect is half-maximal) is less than 50 nM. For the same molecule, the IC50 (in general, the midpoint of a concentration-inhibition curve) in test [2] (IC50 range) was less than 50 nM.
Consider `C=C[C@@H]1C[C@]1(NC(=O)[C@@H]1C[C@@H](Oc2cc(-c3ccccc3)nc3cc(OC)ccc23)CN1C(=O)[C@@H](NC(=O)OC(C)(C)C)C(C)(C)C)C(=O)NS(=O)(=O)C1(CCCC)CC1` [Compound 30, {1-[2-[1-(1-Butyl-cyclopropanesulfonylaminocarbonyl)-2-vinyl-cyclopropylcarbamoyl]-4-(7-methoxy-2-phenyl-quinolin-4-yloxy)-pyrrolidine-1-carbonyl]-2,2-dimethyl-propyl}-carbamic acid tert-butyl ester], for which the EC50 in test [1] (Hepatitis C virus, Huh-7) is less than 50 nM. Moreover, the IC50 in test [2] (IC50 range) is less than 50 nM.
With `C=C[C@@H]1C[C@]1(NC(=O)[C@@H]1C[C@@H](Oc2cc(-c3ccccc3)nc3cc(OC)ccc23)CN1C(=O)[C@@H](NC(=O)OC(C)(C)C)C(C)(C)C)C(=O)NS(=O)(=O)C1(CC(C)C)CC1` [Compound 31, {1-[2-[1-(1-Isobutyl-cyclopropanesulfonylaminocarbonyl)-2-vinyl-cyclopropylcarbamoyl]-4-(7-methoxy-2-phenyl-quinolin-4-yloxy)-pyrrolidine-1-carbonyl]-2,2-dimethyl-propyl}-carbamic acid tert-butyl ester], the EC50 in test [1] (Hepatitis C virus, Huh-7) fell in the range of 50 to 500 nM. Besides, the half-inhibitory concentration (IC50) in test [2] (IC50 range) was less than 50 nM.
With `C=C[C@@H]1C[C@]1(NC(=O)[C@@H]1C[C@@H](Oc2cc(-c3ccccc3)nc3cc(OC)ccc23)CN1C(=O)[C@@H](NC(=O)OC(C)(C)C)C(C)(C)C)C(=O)NS(=O)(=O)C1(CC2CCC2)CC1` [Compound 32, {1-[2-[1-(1-Cyclobutylmethyl-cyclopropanesulfonylaminocarbonyl)-2-vinyl-cyclopropylcarbamoyl]-4-(7-methoxy-2-phenyl-quinolin-4-yloxy)-pyrrolidine-1-carbonyl]-2,2-dimethyl-propyl}-carbamic acid tert-butyl ester], the EC50 in test [1] (Hepatitis C virus, Huh-7) is less than 50 nM. The concentration for half-maximal inhibition (IC50) in test [2] (IC50 range) was less than 50 nM.
Turning to `C=CCCCCCCCCC1(S(=O)(=O)NC(=O)C2(NC(=O)C3CC(Oc4cc(-c5ccccc5)nc5cc(OC)ccc45)CN3C(=O)C(NC(=O)OC(C)(C)C)C(C)(C)C)CC2C=C)CC1` (stereo not drawn) [Compound 33], the half-maximal effective concentration (EC50) in test [1] was in the range of 50 to 500 nM. Besides, the IC50 in test [2] (read-out: IC50 range) is less than 50 nM.
Taken in the same sequence, the figures for `C=CCCCCCCCC1(S(=O)(=O)NC(=O)C2(NC(=O)C3CC(Oc4cc(-c5ccccc5)nc5cc(OC)ccc45)CN3C(=O)C(NC(=O)OC(C)(C)C)C(C)(C)C)CC2C=C)CC1` (stereo not drawn) [Compound 34, (1-{4-(7-Methoxy-2-phenyl-quinolin-4-yloxy)-2-[1-(1-non-8-enyl-cyclopropanesulfonylaminocarbonyl)-2-vinyl-cyclopropylcarbamoyl]-1-pyrrolidine-1-carbonyl}-2,2-dimethyl-propyl)-carbamic acid tert-butyl ester] were less than 50 nM and less than 50 nM.
On to `C=C[C@@H]1C[C@]1(NC(=O)[C@@H]1C[C@@H](Oc2cc(-c3ccccc3)nc3cc(OC)ccc23)CN1C(=O)[C@@H](NC(=O)OC(C)(C)C)C(C)(C)C)C(=O)NS(=O)(=O)C1(CCOC)CC1` [Compound 35, {1-[2-{1-[1-(2-Methoxy-ethyl)-cyclopropanesulfonylaminocarbonyl]-2-vinyl-cyclopropylcarbamoyl}-4-(7-methoxy-2-phenyl-quinolin-4-yloxy)-pyrrolidine-1-carbonyl]-2,2-dimethyl-propyl}-carbamic acid tert-butyl ester], for which, in test [1] (Hepatitis C virus, Huh-7), the EC50 is less than 50 nM. Further, in test [2] (IC50 range), the concentration for half-maximal inhibition (IC50) was less than 50 nM.
Take `C=C[C@@H]1C[C@]1(NC(=O)[C@@H]1C[C@@H](Oc2cc(-c3ccccc3)nc3cc(OC)ccc23)CN1C(=O)[C@@H](NC(=O)OC(C)(C)C)C(C)(C)C)C(=O)NS(=O)(=O)C1(CCOCc2ccccc2)CC1` [Compound 36, {1-[2-{1-[1-(2-Benzyloxy-ethyl)-cyclopropanesulfonylaminocarbonyl]-2-vinyl-cyclopropylcarbamoyl}-4-(7-methoxy-2-phenyl-quinolin-4-yloxy)-pyrrolidine-1-carbonyl]-2,2-dimethyl-propyl}-carbamic acid tert-butyl ester]: in test [1] (Hepatitis C virus, Huh-7), the EC50 was less than 50 nM. The half-inhibitory concentration (IC50) in test [2] (IC50 range) is less than 50 nM.
As for `C=C[C@@H]1C[C@]1(NC(=O)[C@@H]1C[C@@H](Oc2cc(-c3ccccc3)nc3cc(OC)ccc23)CN1C(=O)[C@@H](NC(=O)OC(C)(C)C)C(C)(C)C)C(=O)NS(=O)(=O)C1(COC(C)C)CC1` [Compound 37, {1-[2-[1-(1-Isopropoxymethyl-cyclopropanesulfonylaminocarbonyl)-2-vinyl-cyclopropylcarbamoyl]-4-(7-methoxy-2-phenyl-quinolin-4-yloxy)-pyrrolidine-1-carbonyl]-2,2-dimethyl-propyl}-1-carbamic acid tert-butyl ester], the EC50 in test [1] (Hepatitis C virus, Huh-7) was less than 50 nM. For the same molecule, the IC50 in test [2] (IC50 range) is less than 50 nM.
